Test results from patent US20230045112A1, “DISULFIRAM AND OTHER REDOX-RELATED COMPOSITIONS FOR BRAIN TUMORS” (Texas Tech University System, priority 2014, published 2023).

What was measured:
Cys145 of MGMT = target: T1, Cys145 of MGMT (Homo sapiens, UniProt P16455); assay: BG-PEG-biotin probe binding to MGMT
T1 construct: hexa-histidine; made in house; host or cells: E. coli
T1 sequence (P16455 1-207): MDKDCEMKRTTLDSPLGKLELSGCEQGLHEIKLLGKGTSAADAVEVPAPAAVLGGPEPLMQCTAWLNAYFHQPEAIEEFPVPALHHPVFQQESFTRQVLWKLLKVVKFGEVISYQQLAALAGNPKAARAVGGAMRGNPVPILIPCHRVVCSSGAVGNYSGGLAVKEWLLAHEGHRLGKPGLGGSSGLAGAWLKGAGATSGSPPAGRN

[1] = tested on: U87 malignant glioma cells; assay: MTT cell survival assay, MGMT-deficient cells; assay type: cell-based, human; settings: DSF-pretreated U87 cells lacking MGMT expression
Procedure: (§1) These were performed using the yellow tetrazolium dye (3-(4, 5-dimethylthiazolyl-2)-2, 5-diphenyl tetrazolium bromide) (MTT) as described previously. […] The purple color developed due to formazan was measured at 570 nm using a […]luor Plus plate reader (Tecan Inc.). Cell proliferation was also assessed by colony formation assays on soft agar.
Cells were then cultured for 48 hours before performing the MTT assays. […] The effect of drugs on cell survival was computed at each concentration. The data represents the results of three independent experiments performed in triplicate. Values are mean+S.D. The results presented in panels B, C and G (at 25-75 μM BCNU and 250-750 temozolomide) were significant at P<0.05. *, indicates statistically significant difference as compared to controls.

UW228 cells = assay: Soft agar colony formation assay; assay type: cell-based, human; settings: 50 μM DSF then BCNU or TMZ
Procedure: as §1
Cells were then cultured for 48 hours before performing the MTT assays. […] The effect of drugs on cell survival was computed at each concentration. The data represents the results of three independent experiments performed in triplicate.

MGMT = target: T2, MGMT (Mus musculus, UniProt P26187); assay: MGMT activity in mouse brain and liver after DSF administration; assay type: in vivo, mice; settings: single dose 150 mg/kg i.p., 9-12 hours
T2 construct: from tissue; host or cells: mouse brain and liver
Description: Control mice received DMSO alone.
Error bars indicate SD. […] The overall findings of the present study are summarized.

T2 sequence (P26187 whole entry): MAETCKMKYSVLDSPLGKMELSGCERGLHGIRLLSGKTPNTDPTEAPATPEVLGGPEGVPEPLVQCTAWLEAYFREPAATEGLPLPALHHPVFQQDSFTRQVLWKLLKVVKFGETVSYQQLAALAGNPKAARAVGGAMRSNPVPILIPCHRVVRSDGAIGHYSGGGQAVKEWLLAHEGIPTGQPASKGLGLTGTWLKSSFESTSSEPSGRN

- BG-PEG-biotin labeling of MGMT in cell extracts after drug (Cys145 of MGMT; UW228 cell extracts, 20 minutes): eliminated the western blot signal
- decrease of MGMT repair activity in brain (MGMT): 40%
SMILES: CCN(CC)C(=S)SSC(=S)N(CC)CC [DSF, 1,1′,1″,1′″-[disulfanediylbis(carbonothioylnitrilo)]tetraethane]
- binding of BG-PEG-biotin probe to purified rMGMT after drug (Cys145 of MGMT; 50 μM DSF, 20 minutes at 37° C., wild type rMGMT): significant reduction in binding of the probe
- effect on cell killing by TMZ or BCNU [1]: did not increase the extent of cell killing by TMZ or BCNU
- enhanced cytotoxicity of BCNU or TMZ, colony formation (UW228 cells): 3 fold
